Experimental data as given in ChEMBL document CHEMBL1154623, “S-glycosyl primary sulfonamides--a new structural class for selective inhibition of cancer-associated carbonic anhydrases” (J Med Chem, 2009).

Experiments:
Carbonic anhydrase 9 = Carbonic anhydrase 9 (Homo sapiens, UniProt Q16790)
Description: Inhibition of human cloned CA9 catalytic domain by stopped flow CO2 hydration assay

[1] = Chemical stability during PAMPA assessed as compound degradation; type: physicochemical; conditions: read-out: Activity
[2] = Apparent effective permeability by PAMPA method; type: ADME; conditions: read-out: permeability

Row | Structure (SMILES) | Ki (Carbonic anhydrase 9) [µM] | degraded [1] [%] | Papp [2] [×10⁻⁶ cm/s]
1 | NS(=O)(=O)[C@@H]1O[C@H](CO)[C@@H](O)[C@H](O)[C@H]1O | 4.05 | – | < 0.4
2 | NS(=O)(=O)[C@@H]1O[C@H](CO)[C@H](O)[C@H](O)[C@H]1O | 4.19 | – | –
3 | COC(=O)[C@H]1O[C@@H](S(N)(=O)=O)[C@H](OC(C)=O)[C@@H](OC(C)=O)[C@@H]1OC(C)=O | 4.15 | – | –
4 | CC(=O)Nc1nnc(S(N)(=O)=O)s1 [ACETAZOLAMIDE] | – | – | < 0.15
5 | CC1(C)O[C@@H]2[C@@H](CO[C@@]3(COS(N)(=O)=O)OC(C)(C)O[C@@H]23)O1 [TOPIRAMATE] | – | – | 0.54

The next lines start with the values.

Row | Ki (Carbonic anhydrase 9) [µM] | degraded [1] [%] | Papp [2] [×10⁻⁶ cm/s] | Structure (SMILES)
6 | 3.91 | 35 | < 0.1 | CC(=O)OC[C@H]1O[C@@H](S(N)(=O)=O)[C@H](OC(C)=O)[C@@H](OC(C)=O)[C@@H]1OC(C)=O
7 | 4.22 | – | < 0.5 | NS(=O)(=O)[C@@H]1O[C@H](CO)[C@@H](O[C@H]2O[C@H](CO)[C@@H](O)[C@H](O)[C@H]2O)[C@H](O)[C@H]1O
8 | 4.19 | – | – | NS(=O)(=O)[C@@H]1O[C@H](CO)[C@@H](O[C@@H]2O[C@H](CO)[C@H](O)[C@H](O)[C@H]2O)[C@H](O)[C@H]1O
9 | 4.03 | – | – | CC(=O)OC[C@H]1O[C@@H](O[C@H]2[C@H](OC(C)=O)[C@@H](OC(C)=O)[C@H](S(N)(=O)=O)O[C@@H]2COC(C)=O)[C@H](OC(C)=O)[C@@H](OC(C)=O)[C@H]1OC(C)=O
10 | 4.08 | – | < 0.02 | CC(=O)OC[C@H]1O[C@@H](S(N)(=O)=O)[C@H](OC(C)=O)[C@@H](OC(C)=O)[C@@H]1O[C@H]1O[C@H](COC(C)=O)[C@@H](OC(C)=O)[C@H](OC(C)=O)[C@H]1OC(C)=O
11 | 4.09 | – | – | CC(=O)OC[C@H]1O[C@@H](S(N)(=O)=O)[C@H](OC(C)=O)[C@@H](OC(C)=O)[C@H]1OC(C)=O
